{"source": "patent US9139542B2", "about": "“Crystalline form of a substituted thiazolylacetic acid triethylamine salt” (THERAVANCE BIOPHARMA ANTIBIOTICS IP, LLC, priority 2013, dated 2015)", "key": {"[1]": {"test": "Dynamic moisture sorption (DMS) assessment", "format": "physicochemical", "experimental": "A dynamic moisture sorption (DMS) assessment (also known as a moisture sorption-desorption profile) was performed using a VTI atmospheric microbalance, SGA-100 system (VTI Corp., Hialeah, Fla. 33016). A sample of crystalline (2Z)-2-(2-amino-5-chlorothiazol-4-yl)-2-(3-N-tert-butoxycarbonylaminopropoxyimino)acetic acid triethylamine salt (about 10 mg) was used and the humidity was set at the ambient value at the start of the analysis. A typical DMS analysis consisted of three scans: ambient to 5% relative humidity (RH), 5% RH to 90% RH, 90% RH to 5% RH at a scan rate of 5% RH/step. The mass was measured every two minutes and the RH was changed to the next value (+/−5% RH) when the mass of the sample was stable to within 0.01% for 5 consecutive points."}, "[2]": {"test": "Thermogravimetric analysis (TGA)", "format": "physicochemical", "experimental": "Thermogravimetric analysis (TGA) was performed using a TA Instruments Model Q-500 module equipped with high resolution capability. Data were collected and analyzed using TA Instruments Thermal Solutions software. A sample of crystalline (2Z)-2-(2-amino-5-chlorothiazol-4-yl)-2-(3-N-tert -butoxycarbonylaminopropoxyimino)acetic acid triethylamine salt (about 10 mg) was placed onto a platinum pan and scanned with a high resolution-heating rate from ambient temperature to 300° C. The balance and furnace chambers were purged with nitrogen flows during use."}}}
{"smiles": "CC(C)(C)OC(=O)NCCCO/N=C(\\C(=O)O)c1nc(N)sc1Cl.CCN(CC)CC", "note": "[crystalline form, (2Z)-2-(2-amino-5-chlorothiazol-4-yl)-2-(3-N-tert-butoxycarbonylaminopropoxyimino)acetic acid triethylamine salt]", "values": [{"measurement": "hygroscopicity (reversible moisture sorption/desorption profile)", "setting": "[1]; 5% RH to 90% RH to 5% RH", "value": "acceptable hygroscopicity"}, {"measurement": "weight gain (moisture sorption)", "setting": "[1]; humidity range of 5% RH to 60% RH", "value": "insignificant weight gain"}, {"measurement": "weight gain (moisture sorption)", "setting": "[1]; humidity range of 60% RH to 90% RH", "value": "about 5.56%"}, {"measurement": "moisture loss on initial drying (DMS)", "setting": "[1]; initial drying, ambient to 5% RH", "value": 0.56, "unit": "% by weight"}, {"measurement": "weight loss (TGA)", "setting": "[2]; above 120° C., likely post-melting evaporation of triethylamine and decomposition", "value": "about 50%"}, {"measurement": "weight loss (TGA)", "setting": "[2]; temperature range of from 20° C. to 120° C.", "value": "less than 0.25%"}]}
